Measured values as given in US20100056552A1, “COMBINATION FOR USE IN THE TREATMENT OF INFLAMMATORY DISORDERS” (priority 2007, published 2010).

Assays:
MonoMac-6 (MM6) cells = test: PMA-induced TNF release from MonoMac-6 macrophages (Human TNF ELISA); type: cell-based; conditions: n=2; for mean TNF concentration after PMA stimulation: 48 h treatment, then PMA 10 ng/mL 5 h, untreated cells 41.1 pg/mL
Procedure: (§1) Cells from the human macrophage cell-line MonoMac-6 (MM6) (Ziegler-Heitbrock et al, Int. J. Cancer, 41, 456 (1988)) were cultured (37° C./5% CO2) in RPMI-1640 medium supplemented with 1 mM sodium pyruvate, × nonessential amino acids, 10 μg/mL insulin, 1 mM oxalacetic acid, 100 units/mL penicillin, 100 μg/mL streptomycin and 5% (v/v) fetal bovine serum. At the start of the experiment, MM6 cells were seeded in 96-well plates at a density of 1×10^5 cells/mL (100 μL per well in cell the viability experiments, and 150 μL per well in the TNF release experiments—see below).
(§2) The MM6 cells were treated (incubation conditions as above) with indicated final concentrations of the test drugs for 48 hours prior to quantification of cell viability/growth or stimulation with phorbol-12-myristate-13-acetate (PMA; Sigma Aldrich, Stockholm, Sweden) followed by measurement of PMA-induced TNF-release (see below for details).
To stimulate formation and release of tumor necrosis factor (TNF), the MM6 cells were incubated (37° C./5% CO2) for five hours (in RPMI-1640 with 5% fetal bovine serum with supplements as above) with PMA at a final concentration of 10 ng/mL.
After spinning down the cells after the different MM6 incubations/stimulations (see above and below), the concentrations of TNF in the supernatants were quantitated using Human TNF ELISA Kit II from BD Biosciences—Pharmingen (San Diego, USA) according to instructions supplied by the manufacturer.
(§3) Stock solutions of suplatast (tosylate salt purchased from American Custom Chemicals Corporation, San Diego, USA) and rosuvastatin (sodium salt; rosuvastatin was extracted and purified from commercially available Crestor® tablets and isolated as sodium salt as described in Bioorganic & Medicinal Chemistry, Vol. 5, No. 5, pp 437-444, 1997) were made in sterile saline.

[1] = MM6 cell growth/viability (WST-1 reagent); type: cell-based; conditions: human, MonoMac-6 (MM6) macrophage cell line, n=3, read-out: viability of MM6 cells compared to untreated MM6 cells; for viability at 48 h, 10 μM: drug alone 10 μM
Procedure: as §1, §2
MM6 cell growth/viability was measured using the Cell Proliferation Reagent WST-1 (Roche Diagnostics Scandinavia AB, Bromma, Sweden). The WST-1 reagent is designed to be used for spectrophotometric quantification of e.g. cell growth and viability and. was used according to the manufacturers' instructions.
as §3

Q: Which “mean TNF concentration after PMA stimulation” value (MonoMac-6 (MM6) cells; drug alone 10 μM) does the source give for `CC(C)c1nc(N(C)S(C)(=O)=O)nc(-c2ccc(F)cc2)c1/C=C/[C@@H](O)C[C@@H](O)CC(=O)O` [rosuvastatin] here?
A: Its value is 76.7 pg/mL.

Q: What about the “mean TNF concentration after PMA stimulation” value (MonoMac-6 (MM6) cells; drug alone 30 μM) of the same compound?
A: The value was 84.0 pg/mL.

Q: And the viability at 48 h, 10 μM [1]?
A: The viability at 48 h, 10 μM was 105%.

Q: What about the viability at 48 h, 30 μM ([1]; drug alone 30 μM) of the same compound?
A: The viability at 48 h, 30 μM was 102%.

Q: Which “mean TNF concentration after PMA stimulation” value (MonoMac-6 (MM6) cells; drug alone 10 μM) does the source give for `CC(C)c1c(C(=O)Nc2ccccc2)c(-c2ccccc2)c(-c2ccc(F)cc2)n1CC[C@@H](O)C[C@@H](O)CC(=O)O` [atorvastatin] here?
A: Its value is 133.6 pg/mL.

Q: And the “mean TNF concentration after PMA stimulation” value (MonoMac-6 (MM6) cells; drug alone 30 μM)?
A: The value was 59.7 pg/mL.

Q: Which results are given for `CCOCC(O)COc1ccc(NC(=O)CC[S+](C)C)cc1` (stereo not drawn) [suplatast]?
A: mean TNF concentration after PMA stimulation (MonoMac-6 (MM6) cells; drug alone 1 μM): 39.6 pg/mL; decrease in mean TNF concentration compared to the untreated cells (MonoMac-6 (MM6) cells; drug alone 1 μM): 3.8%; mean TNF concentration after PMA stimulation (MonoMac-6 (MM6) cells; drug alone 10 μM): 34.8 pg/mL; decrease in mean TNF concentration compared to the untreated cells (MonoMac-6 (MM6) cells; drug alone 10 μM): 15.4%; viability at 48 h, 1 μM ([1]; drug alone 1 μM): 94%; viability at 48 h, 10 μM [1]: 92%
